System: EL-4 tumour cells
Experiment: LDH cytotoxicity assay, OT-I CD8+ CTLs co-cultured with Ova peptide-pulsed EL-4 target cells
Format: cell-based, murine
Details: 10 μM, over a range of effector-to-target ratios, vs carrier control
Description: FIG. 1. L-type Cav channel agonists increase Gli1 expression and enhance specific cell killing by murine CD8+ CTLs. CD8^+ T cells were isolated from the spleen and inguinal lymph nodes of Rag2^−/− OT-I mice, and CTLs were generated. (A) Cells were restimulated on day 9/10 for 3 hours using plate-bound anti-CD3ε in the presence of indicated concentrations of FPL 64176 or carrier control. RNA was extracted and Gli1 expression was assessed by qRT-PCR. Data is n=3 independent experiments. us=unstimulated cells. (B) An LDH cytotoxicity assay was performed using OT-I CTLs. On day 7, CTLs were co-cultured with Ova peptide-pulsed EL-4 cells in the presence of 10 μM FPL 64176 (squares) or carrier control (circles). Data is n=4 independent experiments. (C) Updated experiment of (A). Data is now n=4 independent experiments. Data is normalised to Tbp as a reference gene. 0h=unstimulated cells. (D) Same data as (B) represented differently. […] Error bars indicate SD. p values were calculated using an unpaired two-tailed Student's t test (C) or a two-way ANOVA (B/D). * indicates p<0.05, ** indicates p<0.01, **** indicates p<0.0001.
FIG. 11. […] (A) Quantitative analysis of live cell numbers. […] (E) Quantitative analysis of live cell numbers. […]
To ensure that the use of L-type Cav agonist is not adversely affecting immune cells, general cell functions were assessed. […]

COC(=O)c1c(C)[nH]c(C)c1C(=O)c1ccccc1Cc1ccccc1 [FPL 64176]
improvement of specific cell killing of EL-4 tumour cells: at least 100%

Reference: patent US20250222028A1, “ENGINEERED IMMUNE CELL PLATFORM” (Cancer Research Technology Limited, priority 2022, published 2025)
